Measured values from patent publication US11866720B2, “Transgenic or non-transgenic plants with mutated protoporphyrinogen oxidase having increased tolerance to herbicides” (priority 2013, dated 2024).
Changes are numbered by the printed parent chain. Where “and” joins values, the source holds several entries; their conditions need not be identical. Equal entries are not always repeated.

Tests used:
Test in all cases: biochemical
[1] = biological target: recombinant wildtype and mutated PPO (Amaranthus PPO2: PPX2L_WC SEQ ID NO 2, PPX2L_AC SEQ ID NO 4, dG210 SEQ ID NO 6 & 8) (Amaranthus tuberculatus, UniProt Q0NZW9, R128A/F420V, form not given)
Chain of recombinant wildtype and mutated PPO (Amaranthus PPO2: PPX2L_WC SEQ ID NO 2, PPX2L_AC SEQ ID NO 4, dG210 SEQ ID NO 6 & 8) (Amaranthus tuberculatus, UniProt Q0NZW9, R128A/F420V, form not given) (Q0NZW9 1-534 R128A/F420V, form open): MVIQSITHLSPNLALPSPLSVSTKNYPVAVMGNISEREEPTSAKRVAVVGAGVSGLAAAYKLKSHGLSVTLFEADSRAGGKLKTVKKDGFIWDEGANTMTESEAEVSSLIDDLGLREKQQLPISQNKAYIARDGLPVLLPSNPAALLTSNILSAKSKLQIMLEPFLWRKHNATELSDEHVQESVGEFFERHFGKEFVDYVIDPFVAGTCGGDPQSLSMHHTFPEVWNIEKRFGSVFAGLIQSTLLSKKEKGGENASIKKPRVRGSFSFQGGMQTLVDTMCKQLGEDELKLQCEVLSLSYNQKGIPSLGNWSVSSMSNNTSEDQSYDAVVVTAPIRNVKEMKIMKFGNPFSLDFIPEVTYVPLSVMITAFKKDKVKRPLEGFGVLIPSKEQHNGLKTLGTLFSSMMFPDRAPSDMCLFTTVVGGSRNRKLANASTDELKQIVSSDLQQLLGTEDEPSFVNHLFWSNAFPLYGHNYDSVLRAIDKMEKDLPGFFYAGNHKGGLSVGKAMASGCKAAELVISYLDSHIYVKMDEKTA

[2] = biological target: T1, recombinant wildtype and mutated PPO (Amaranthus PPO2: PPX2L_WC SEQ ID NO 2, PPX2L_AC SEQ ID NO 4, dG210 SEQ ID NO 6 & 8) (Amaranthus tuberculatus, UniProt Q0NZW9, R128A/F420M, form not given)
T1 sequence (Q0NZW9 1-534 R128A/F420M): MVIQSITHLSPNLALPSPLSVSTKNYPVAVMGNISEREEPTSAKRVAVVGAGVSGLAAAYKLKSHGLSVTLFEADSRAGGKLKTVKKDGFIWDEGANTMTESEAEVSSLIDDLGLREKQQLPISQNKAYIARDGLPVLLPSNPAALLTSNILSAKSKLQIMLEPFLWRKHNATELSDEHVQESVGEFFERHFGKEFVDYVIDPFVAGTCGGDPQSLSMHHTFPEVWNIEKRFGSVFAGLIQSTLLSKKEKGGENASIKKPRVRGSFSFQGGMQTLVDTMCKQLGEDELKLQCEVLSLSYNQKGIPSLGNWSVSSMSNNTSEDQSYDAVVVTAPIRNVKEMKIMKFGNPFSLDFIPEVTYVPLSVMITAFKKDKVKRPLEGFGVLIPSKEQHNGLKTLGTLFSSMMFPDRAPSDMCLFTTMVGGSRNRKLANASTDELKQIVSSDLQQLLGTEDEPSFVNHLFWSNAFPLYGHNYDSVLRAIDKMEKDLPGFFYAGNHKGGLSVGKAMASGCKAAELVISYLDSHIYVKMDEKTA

[3] = biological target: T2, recombinant wildtype and mutated PPO (Amaranthus PPO2: PPX2L_WC SEQ ID NO 2, PPX2L_AC SEQ ID NO 4, dG210 SEQ ID NO 6 & 8) (Amaranthus tuberculatus, UniProt Q0NZW9, D133A/F420M/R128T); details: IC50 (M)
T2 sequence (Q0NZW9 1-534 R128T/D133A/F420M): T1 sequence (Q0NZW9 1-534 R128A/F420M) with A128T, D133A

[4] = biological target: recombinant wildtype and mutated PPO (Amaranthus PPO2: PPX2L_WC SEQ ID NO 2, PPX2L_AC SEQ ID NO 4, dG210 SEQ ID NO 6 & 8) (Amaranthus tuberculatus, UniProt Q0NZW9, D133A/F420L/R128H); details: IC50 (M)
Chain of recombinant wildtype and mutated PPO (Amaranthus PPO2: PPX2L_WC SEQ ID NO 2, PPX2L_AC SEQ ID NO 4, dG210 SEQ ID NO 6 & 8) (Amaranthus tuberculatus, UniProt Q0NZW9, D133A/F420L/R128H) (Q0NZW9 1-534 R128H/D133A/F420L): as the sequence (Q0NZW9 1-534 R128A/F420V, form open) above, with A128H, D133A, V420L counted along it

[5] = biological target: T3, recombinant wildtype and mutated PPO (Amaranthus PPO2: PPX2L_WC SEQ ID NO 2, PPX2L_AC SEQ ID NO 4, dG210 SEQ ID NO 6 & 8) (Amaranthus tuberculatus, UniProt Q0NZW9, D133A/F420M/R128I); details: IC50 (M)
T3 sequence (Q0NZW9 1-534 R128I/D133A/F420M): T1 sequence (Q0NZW9 1-534 R128A/F420M) with A128I, D133A

[6] = biological target: T4, recombinant wildtype and mutated PPO (Amaranthus PPO2: PPX2L_WC SEQ ID NO 2, PPX2L_AC SEQ ID NO 4, dG210 SEQ ID NO 6 & 8) (Amaranthus tuberculatus, UniProt Q0NZW9, D133A/F420M/R128Q); details: IC50 (M)
T4 sequence (Q0NZW9 1-534 R128Q/D133A/F420M): T1 sequence (Q0NZW9 1-534 R128A/F420M) with A128Q, D133A

[7] = test system: recombinant wildtype and mutated PPO (Amaranthus PPO2: PPX2L_WC SEQ ID NO 2, PPX2L_AC SEQ ID NO 4, dG210 SEQ ID NO 6 & 8); design: species or system Amaranthus tuberculatus

C#CCN1C(=O)C(F)(F)Oc2cc(F)c(N3C(=O)C4=C(CCCC4)C3=O)cc21
IC50 [1]: 0.274 µM | IC50 [2]: 0.641 µM

COC(=O)C(OC)Oc1ccccc1Oc1cc(-n2c(=O)cc(C(F)(F)F)n(C)c2=O)c(F)cc1Cl (stereo not shown)
IC50 [3]: 2.79e-08 M | IC50 [4]: 4.47e-08 M | IC50 [5]: 1.15e-08 M | IC50 [6]: 7.14e-08 M

COC(Oc1ccccc1Oc1cc(-n2c(=O)cc(C(F)(F)F)n(C)c2=O)c(F)cc1Cl)C(=O)OC1CCCCC1 (stereo not shown)
IC50 [3]: 1.17e-07 M | IC50 [4]: 6.93e-07 M | IC50 [5]: 1.06e-08 M | IC50 [6]: 1.72e-07 M

C#CCN1C(=O)C(F)(F)Oc2cc(F)c(-n3c(=O)cc(C(F)(F)F)n(C)c3=O)cc21
IC50 [1]: 0.00633 µM | IC50 [2]: 0.00256 µM

C#CCN1C(=O)C(F)(F)Oc2cc(F)c(-n3c(=O)n(C)c(=S)n(C)c3=O)cc21
IC50 [3]: 4.33e-08 M | IC50 [4]: 7.98e-08 M | IC50 [5]: 6.1e-08 M | IC50 [6]: 1.07e-08 M

C#CCN1C(=O)COc2cc(F)c(N3C(=O)C4=C(CCCC4)C3=O)cc21 [Flumioxazin, flumioxazin]
inhibition (%) at 1 × 10−5M [7]: 41% and 48% and 30% | IC50 [2]: 8.43 µM

O=C(O)c1cc(Oc2ccc(C(F)(F)F)cc2Cl)ccc1[N+](=O)[O-] [ACIFLUORFEN]
inhibition (%) at 1 × 10−5M [7]: 39% and 33% and 27%
